Measurements taken from patent publication US4393228A, “Epoxysuccinic acid derivatives” (Taisho Pharmaceutical Co., Ltd., priority 1977, dated 1983).
Like-named read-outs stand apart in the source and are kept apart here.

Experiments:
[1] = tested on: adjuvant induced polyarthritis; experiment: Inhibition of adjuvant induced polyarthritis in rats (hind paw volume); format: in vivo, Sprague Dawley rat; settings: Rattus norvegicus
Procedure: Effect of the compounds of this invention on the development of adjuvant-induced polyarthritis in rats was assayed as follows: Adjuvant arthritis was produced by a single intracutaneous injection of 0.1 ml of the adjuvant mixture containing heat-killed mycobacteria of the human Aoyama B strain suspended in liquid paraffin in 0.6% in the middle part of the distal tail of Sprague Dawley rat (female, 8 weeks old). […] The activity was measured as the mean inhibition percent for the increase of the hind paw volume of the 8 rats/group on the days 17 and 23 on which the legs become inflamed and reach maximum volumes. The compound Nos. in Table 2 are as defined in Examples as described hereinafter.

papain = target: T1, papain (Carica papaya, UniProt P00784); experiment: Papain inhibitory activity (milk casein digestion); format: biochemical; settings: papain 80 μg/ml 0.5 ml, cysteine, pH 6.8, 1% milk casein, 40° C., 10 minutes
T1 construct: purchased Sigma Chem. Co
T1 sequence (P00784 134-345): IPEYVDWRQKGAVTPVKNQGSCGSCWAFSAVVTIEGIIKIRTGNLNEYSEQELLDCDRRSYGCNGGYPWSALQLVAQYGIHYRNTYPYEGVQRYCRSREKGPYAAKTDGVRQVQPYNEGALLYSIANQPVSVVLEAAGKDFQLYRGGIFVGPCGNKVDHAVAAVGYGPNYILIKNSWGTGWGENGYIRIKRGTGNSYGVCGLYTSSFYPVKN
In short: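 Papain (80 μg/ml stock) preincubated 15 min at 40 °C with inhibitor, cysteine/EDTA activator and phosphate buffer pH 6.8. Then 1% milk casein digested 10 min at 40 °C, stopped with trichloroacetic acid and filtered; filtrate absorbance at 280 nm gives percent inhibition versus no-inhibitor control.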

thiol proteases = settings: U.S. Pat. No. 3,911,111; cited from earlier work
[2] = U.S. Pat. No. 3,911,111; cited from earlier work
[3] = prior art compound; cited from earlier work
[4] = 408 h, 100 mg/kg of body weight, daily oral, day 17, read-out: Inhibition % 17 days (increase of hind paw volume)
[5] = 552 h, 100 mg/kg of body weight, daily oral, day 23, read-out: Inhibition % 23 days (increase of hind paw volume)
[6] = po, 408 h, read-out: Inhibition % 17 days (increase of hind paw volume)
[7] = po, 552 h, read-out: Inhibition % 23 days (increase of hind paw volume)

| SMILES | inhibition in vivo at 100 mg/kg [1, 4] | inhibition in vivo at 100 mg/kg [1, 5] | ID50 (amount of inhibitor for 50% inhibition) (papain) | thiol protease inhibitory activity (thiol proteases) | anti-inflammatory activity [2] | acceleration of vascular permeability (side effect) [3] | inhibition in vivo at 100 mg/kg [1, 6] | inhibition in vivo at 100 mg/kg [1, 7] |
| --- | --- | --- | --- | --- | --- | --- | --- | --- |
| C[C@H]1CC[C@@H](OC(=O)[C@@H]2O[C@H]2C(=O)O[C@H]2CC[C@@H](C)CC2)CC1 (relative stereo) [EP-17, di-4'-cis-methylcyclohexyl epoxysuccinate] | 100% | 78.7% | 1.79 γ |  |  |  |  |  |
| O=C(OC1CCCC1)[C@@H]1O[C@H]1C(=O)OC1CCCC1 (relative stereo) [EP-25, dicyclopentyl epoxysuccinate] | 52.6% | 77.8% | 3.03 γ |  |  |  |  |  |
| O=C(O)[C@@H]1O[C@H]1C(=O)OC1CCCC1 (relative stereo) [EP-26, cyclopentyl potassium epoxysuccinate] | 52% | 55.5% | 0.08 γ |  |  |  |  |  |
| O=C(OCC1CCCO1)[C@@H]1O[C@H]1C(=O)OCC1CCCO1 (relative stereo) [EP-75, di-tetrahydro-2-furanmethyl epoxysuccinate] | 89.6% | 41% | 1.65 γ |  |  |  |  |  |
| O=C(OCc1cccs1)[C@@H]1O[C@H]1C(=O)OCc1cccs1 (relative stereo) [EP-79, di-2-thenyl epoxysuccinate] | 64.3% | 90.2% | 0.75 γ |  |  |  |  |  |
| O=C(OCc1cccc2ccccc12)[C@@H]1O[C@H]1C(=O)OCc1cccc2ccccc12 (relative stereo) [EP-81, di-1'-naphthylmethyl epoxysuccinate] | 64.3% | 83.6% | 1.30 γ |  |  |  |  |  |
| COc1ccc(COC(=O)[C@@H]2O[C@H]2C(=O)O)cc1 (relative stereo) [EP-102, p-methoxybenzyl potassium epoxysuccinate] | 28% | 31% | 0.36 γ |  |  |  |  |  |
| O=C(O)[C@H]1O[C@@H]1C(=O)OCc1ccc(Cl)cc1 (relative stereo) [EP-116, p-chlorobenzyl potassium epoxysuccinate] | 35% | 33.5% | 0.32 γ |  |  |  |  |  |
| O=C(OCc1cccc(F)c1)[C@H]1O[C@@H]1C(=O)OCc1cccc(F)c1 (relative stereo) [EP-121, di-m-fluorobenzyl epoxysuccinate] | 53.6% | 38.9% | 0.46 γ |  |  |  |  |  |
| O=C(OCCCc1ccccc1)[C@H]1O[C@@H]1C(=O)OCCCc1ccccc1 (relative stereo) [EP-131, di-3'-phenylpropyl epoxysuccinate] | 57.1% | 49.2% | 11.36 γ |  |  |  |  |  |
| CCOC(=O)[C@H]1O[C@@H]1C(=O)O (relative stereo) [EP-137, ethyl potassium epoxysuccinate] | 40% | 38.5% | 2.08 γ |  |  |  |  |  |
| O=C(O)[C@H]1O[C@@H]1C(=O)OCc1ccccc1 (relative stereo) [EP-143, benzyl potassium epoxysuccinate] | 45.1% | 35.6% | 0.15 γ |  |  |  |  |  |
| CCCCCOC(=O)[C@H]1O[C@@H]1C(=O)O (relative stereo) [EP-144, n-amyl potassium epoxysuccinate] | 33.3% | 32.1% | 0.34 γ |  |  |  |  |  |
| CC(C)C[C@H](NC(=O)[C@H]1O[C@@H]1C(=O)O)C(=O)NCCCCN=C(N)N [E-64] |  |  |  | possessing thiol protease inhibitory activity | anti-inflammatory activity | acceleration of vascular permeability |  |  |
| CC(C)C[C@H](NC(=O)C1OC1C(=O)[O-])C(=O)[O-].[K+].[K+] (stereo partly drawn) [EP-174, N-(3-carboxyoxirane-2-carbonyl)-L-leucine dipotassium salt] |  |  | 0.20 γ |  |  |  | 30.5% | 29% |
| O=C([O-])C1OC1C(=O)N[C@@H](Cc1ccccc1)C(=O)[O-].[K+].[K+] (stereo partly drawn) [EP-175, N-(3-carboxyoxirane-2-carbonyl)-L-phenylalanine dipotassium salt] |  |  | 1.90 γ |  |  |  | 32% | 31.5% |
